# No end group written: not given here.
# Tests used:
# rats [1] = conditions: central administration at the onset of the normal sleep period; cited from earlier work
# freely-feeding rats = conditions: central administration, 4 hour time period; cited from earlier work
# rat Orexin-1 receptor = biological target: T1, rat Orexin-1 receptor (Rattus norvegicus, UniProt P56718); assay: FLIPR antagonist affinity at cloned rat OX1 receptor (RBL cells); type: cell-based; conditions: read-out: fpKi
# T1 construct: expressed in transfected cells
# T1 sequence (P56718 1-416): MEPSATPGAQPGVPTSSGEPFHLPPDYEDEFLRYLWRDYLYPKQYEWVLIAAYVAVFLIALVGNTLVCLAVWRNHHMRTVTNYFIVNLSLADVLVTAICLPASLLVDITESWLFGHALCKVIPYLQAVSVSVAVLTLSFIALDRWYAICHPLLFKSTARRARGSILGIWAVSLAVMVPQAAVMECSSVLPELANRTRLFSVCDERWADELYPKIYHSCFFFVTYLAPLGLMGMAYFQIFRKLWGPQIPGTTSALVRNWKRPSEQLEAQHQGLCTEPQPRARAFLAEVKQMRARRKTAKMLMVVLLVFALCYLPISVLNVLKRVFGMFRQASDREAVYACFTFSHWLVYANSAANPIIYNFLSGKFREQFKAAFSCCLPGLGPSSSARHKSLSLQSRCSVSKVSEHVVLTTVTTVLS
# Description: (§1) Determination of Antagonist Affinity at Human Orexin-1 and 2 Receptors Using FLIPR
# (§2) Adherent Chinese Hamster Ovary (CHO) cells, stably expressing the recombinant human Orexin-1 or human Orexin-2 receptors or Rat Basophilic Leukaemia Cells (RBL) stably expressing recombinant rat Orexin-1 or rat Orexin-2 receptors were maintained in culture in Alpha Minimum Essential Medium (Gibco/Invitrogen, cat. no.; 22571-020), supplemented with 10% decomplemented foetal bovine serum (Life Technologies, cat. no. 10106-078) and 400 μg/mL Geneticin G418 (Calbiochem, cat. no. 345810). Cells were grown as monolayers under 95%:5% air:CO2 at 37° C. […]
# (§3) Compounds of the invention were tested in a final assay concentration range from 1.66×10^−5M to 1.58×10^−11 M. Compounds of the invention were dissolved in dimethylsulfoxide (DMSO) at a stock concentration of 10 mM. […] This final concentration of hOrexin A was equivalent to the calculated EC80 for hOrexinA agonist potency in this test system. […]
# (§4) The loaded cells were then incubated for 10 min at 37° C. with test compound. The plates were then placed into a FLIPR™ (Molecular Devices, UK) to monitor cell fluorescence (λex=488 nm, λEM=540 nm) (Sullivan E, Tucker E M, Dale I L. Measurement of [Ca^2+]i using the fluometric imaging plate reader (FLIPR). In: Lambert DG (ed.), Calcium Signaling Protocols. New Jersey: Humana Press, 1999, 125-136). […]
# rat Orexin-2 receptor = biological target: T2, rat Orexin-2 receptor (Rattus norvegicus, UniProt P56719); assay: FLIPR antagonist affinity at cloned rat OX2 receptor (RBL cells); type: cell-based; conditions: read-out: fpKi
# T2 construct: expressed in transfected cells
# T2 sequence (P56719 1-460): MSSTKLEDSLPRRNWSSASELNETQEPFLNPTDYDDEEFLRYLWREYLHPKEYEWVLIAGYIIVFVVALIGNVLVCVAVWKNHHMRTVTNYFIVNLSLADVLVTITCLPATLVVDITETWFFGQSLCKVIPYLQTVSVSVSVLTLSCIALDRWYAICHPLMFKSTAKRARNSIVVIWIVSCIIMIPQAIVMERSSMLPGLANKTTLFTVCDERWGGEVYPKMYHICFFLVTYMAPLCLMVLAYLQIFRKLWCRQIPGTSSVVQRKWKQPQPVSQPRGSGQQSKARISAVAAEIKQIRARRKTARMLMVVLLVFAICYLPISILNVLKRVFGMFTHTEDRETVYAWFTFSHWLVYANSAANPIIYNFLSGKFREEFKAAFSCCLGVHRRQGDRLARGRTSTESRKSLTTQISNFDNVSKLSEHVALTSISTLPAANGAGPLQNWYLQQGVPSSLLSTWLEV
# Description: as §1, §2, §3, §4
# rats [2] = conditions: cited from earlier work
# rats [3] = conditions: cited from earlier work; remark: listed apart in the source
Ki (rat Orexin-1 receptor) [nM],Ki (rat Orexin-2 receptor) [nM],Compound,also measured
,,"orexin-A: ligand for the orexin-1 receptor; an agonist of the orexin receptors (QPLPDCCRQKTCSCRLYELLHGAGNHAAGILTL; ends and bridges not checked; cysteine pairing not given here; UniProt O43612 34-66, looked up)",arousal (rats [1]): dose-related increase; increase of food intake over control rats receiving vehicle (freely-feeding rats): approximately four-fold
1 to 5.01,0.316 to 1,"Cc1nc(C(=O)N2CCCC[C@H]2Cc2cn3cc(F)cc(C)c3n2)c(-c2ccccc2)s1 [Example 31, 6-fluoro-8-methyl-2-({(2S)-1-[(2-methyl-5-phenyl-1,3-thiazol-4-yl)carbonyl]-2-piperidinyl}methyl)imidazo[1,2-a]pyridine]",
,,Cc1nc2ccc(NC(=O)Nc3ccnc4cccnc34)cc2o1 [SB334867],hedonic eating (rats [2]): potently reduced; high-fat pellet self-administration (rats [3]): attenuated
1 to 5.01,0.316 to 1,"Cc1nc(C(=O)N2CCCC[C@H]2Cc2cn3cccc(F)c3n2)c(-c2ccccc2)s1 [Example 13, 8-fluoro-2-({(2S)-1-[(2-methyl-5-phenyl-1,3-thiazol-4-yl)carbonyl]-2-piperidinyl}methyl)imidazo[1,2-a]pyridine]",
